Laboratory results taken from the supplement of paper PMC7021759.
± gives the standard deviation of the averaged measurements.

System: SK-N-MM (SKNMM-MYCN, doxycycline-inducible MYCN)
Assay: area under dose-response curve (CellTiter-Glo viability normalised to plate controls) (AUC (arbitrary units)); higher = more loss of viability; extreme values may be limits of the assay
Summary of the method: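 In 96-well plates, SK-N-MM cells with doxycycline-inducible MYCN (1250 cells/100 μL) were given medium with or without doxycycline about 24 h after plating. Compound dilution series of 10 points at 1:3 were added two days later and again on day 4, and CellTiter-Glo luminescence was recorded 3 or 8 days after drugging. The area under the dose-response curve was derived from log2 signals normalised to the positive and negative controls on each plate.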

[1] = MYCN induction (doxycycline): +doxycycline (MYCN induced), time after drugging: 3 days
[2] = MYCN induction (doxycycline): +doxycycline (MYCN induced), time after drugging: 8 days
[3] = MYCN induction (doxycycline): no doxycycline (MYCN not induced), time after drugging: 3 days
[4] = MYCN induction (doxycycline): no doxycycline (MYCN not induced), time after drugging: 8 days

SMILES	area under dose-response curve [1]	area under dose-response curve [2]	area under dose-response curve [3]	area under dose-response curve [4]
CO[C@H]1C(=O)[C@]2(C)[C@@H](OC)C[C@H]3OC[C@@]3(OC(C)=O)[C@H]2[C@H](OC(=O)c2ccccc2)[C@]2(O)C[C@H](OC(=O)[C@H](O)[C@@H](NC(=O)OC(C)(C)C)c3ccccc3)C(C)=C1C2(C)C [CABAZITAXEL]	195	350	140	225
S=c1[nH]cnc2nc[nH]c12 [MERCAPTOPURINE]	8.11	21.7	12.1	13.1
COc1ncc(-c2ccc3nccc(-c4ccnnc4)c3c2)cc1NS(=O)(=O)c1ccc(F)cc1F [OMIPALISIB]	105	183	86.2	160
COc1cc2c(Oc3ccc(NC(=O)C4(C(=O)Nc5ccc(F)cc5)CC4)cc3F)ccnc2cc1OCCCN1CCOCC1 [FORETINIB]	167	170	144	140
CC[C@@]1(O)C(=O)OCc2c1cc1n(c2=O)Cc2cc3c(CN(C)C)c(O)ccc3nc2-1 [TOPOTECAN]	139	216	68.5	105
Cc1cc(Nc2ccc(NC(=O)c3ccc(Nc4ccnc5ccccc45)cc3)cc2)nc(N)n1 [SGI-1027]	80.5	201	26.5	105
NC(=O)Nc1cc(-c2cccc(F)c2)sc1C(=O)N[C@H]1CCCNC1 [AZD-7762]	139	244	75.8	141
CCN(CC)Cc1ccc2cc(COC(=O)Nc3ccc(C(=O)NO)cc3)ccc2c1 [GIVINOSTAT]	132	283	96.7	226
CO[C@H]1C[C@@H]2CC[C@@H](C)[C@@](O)(O2)C(=O)C(=O)N2CCCC[C@H]2C(=O)O[C@H]([C@H](C)C[C@@H]2CC[C@@H](OCCO)[C@H](OC)C2)CC(=O)[C@H](C)/C=C(\C)[C@@H](O)[C@@H](OC)C(=O)[C@H](C)C[C@H](C)/C=C/C=C/C=C/1C [EVEROLIMUS]	19.6	0	37.3	21.4
Nc1nc2[nH]cnc2c(=S)[nH]1 [THIOGUANINE]	26.6	54.3	10.2	21.2
O=C(NC[C@H](O)CO)c1ccncc1Nc1ccc(I)cc1F [PIMASERTIB]	42.1	125	0	105
CC(=O)Nc1cccc(-n2c(=O)n(C3CC3)c(=O)c3c(Nc4ccc(I)cc4F)n(C)c(=O)c(C)c32)c1 [TRAMETINIB]	54.2	206	42.4	152
O=C(Nc1c[nH]nc1-c1nc2ccc(CN3CCOCC3)cc2[nH]1)NC1CC1 [AT9283]	91	206	42.9	145
COc1cc2nc(N3CCCN(C)CC3)nc(NC3CCN(Cc4ccccc4)CC3)c2cc1OC	195	247	194	243
CC1(C)CNc2cc(NC(=O)c3cccnc3NCc3ccncc3)ccc21 [MOTESANIB DIPHOSPHATE]	0	0	5.62	0
CN(C)c1ccc2nc3ccc(=[N+](C)C)cc-3sc2c1 [METHYLENE BLUE]	48.8	152	45.6	75.9
CC(/C=C/C(=O)NO)=C\[C@@H](C)C(=O)c1ccc(N(C)C)cc1 [TRICHOSTATIN A]	159	310	124	282
CC(C)(C)c1nc(-c2cccc(NS(=O)(=O)c3c(F)cccc3F)c2F)c(-c2ccnc(N)n2)s1 [DABRAFENIB]	9.29	0	14.1	10.8
N#CC[C@H](C1CCCC1)n1cc(-c2ncnc3[nH]ccc23)cn1 [RUXOLITINIB]	27.6	121	22.3	100
CC/C(=C(\c1ccccc1)c1ccc(OCCN(C)C)cc1)c1ccccc1 [TAMOXIFEN]	0	0	0	0
Cn1ncnc1[C@H]1c2n[nH]c(=O)c3cc(F)cc(c23)N[C@@H]1c1ccc(F)cc1 [TALAZOPARIB]	48.2 ± 12	183 ± 40	29.3 ± 20	78.2 ± 25
COc1ccc(-c2cc(=O)c3c(O)cc(O)c(-c4cc(-c5cc(=O)c6c(O)cc(O)cc6o5)ccc4OC)c3o2)cc1 [ISOGINKGETIN]		61.2	15.4	24.2
Cc1cnc(NC(=O)Nc2cc(Br)c(C)cc2OC[C@@H]2CNCCO2)cn1 [RABUSERTIB]	89.5	171	31	95.5
CN1CCC(CNc2ccc3ncc(-c4cccc(OC(F)(F)F)c4)n3n2)CC1 [SGI-1776]		144		138
CC(C)(C#N)c1cc(Cn2cncn2)cc(C(C)(C)C#N)c1 [ANASTROZOLE]	4.86	89.8	0	77.4
Cc1nc(=O)c2cc(CN(C)c3ccc(C(=O)N[C@@H](CCC(=O)O)C(=O)O)s3)ccc2[nH]1 [RALTITREXED]	22.3	166	6.42	63.1
CC(C)NC[C@@H](C(=O)N1CCN(c2ncnc3c2[C@H](C)C[C@H]3O)CC1)c1ccc(Cl)cc1 [IPATASERTIB]	0	0	10.4	0.0606
CC(=O)O[C@@]12CO[C@@H]1C[C@H](O)[C@@]1(C)C(=O)[C@H](O)C3=C(C)[C@@H](OC(=O)[C@H](O)[C@@H](NC(=O)OC(C)(C)C)c4ccccc4)C[C@@](O)([C@@H](OC(=O)c4ccccc4)[C@H]21)C3(C)C [DOCETAXEL]	142	292	107	183
O=C(NOC[C@H](O)CO)c1ccc(F)c(F)c1Nc1ccc(I)cc1F	28.9	92.1	21.5	84.4
